From paper PMC10975047, “Antimicrobial Activity of 2-(Piperazin-1-yl)naphtho[2,3-d]thiazole-4,9-dione against Staphylococcus Strains” (Molecules, 2024)

Molecular target: T1, DNA gyrase (Staphylococcus aureus, UniProt P0A0K8+P20831)
T1 construct: gene gyrA; with DNA gyrase subunit B (GyrB)
Assay: DNA gyrase supercoiling assay (H19 dye fluorescence, ProFoldin kit)
Type: biochemical

T1 sequence (P0A0K8 2-644): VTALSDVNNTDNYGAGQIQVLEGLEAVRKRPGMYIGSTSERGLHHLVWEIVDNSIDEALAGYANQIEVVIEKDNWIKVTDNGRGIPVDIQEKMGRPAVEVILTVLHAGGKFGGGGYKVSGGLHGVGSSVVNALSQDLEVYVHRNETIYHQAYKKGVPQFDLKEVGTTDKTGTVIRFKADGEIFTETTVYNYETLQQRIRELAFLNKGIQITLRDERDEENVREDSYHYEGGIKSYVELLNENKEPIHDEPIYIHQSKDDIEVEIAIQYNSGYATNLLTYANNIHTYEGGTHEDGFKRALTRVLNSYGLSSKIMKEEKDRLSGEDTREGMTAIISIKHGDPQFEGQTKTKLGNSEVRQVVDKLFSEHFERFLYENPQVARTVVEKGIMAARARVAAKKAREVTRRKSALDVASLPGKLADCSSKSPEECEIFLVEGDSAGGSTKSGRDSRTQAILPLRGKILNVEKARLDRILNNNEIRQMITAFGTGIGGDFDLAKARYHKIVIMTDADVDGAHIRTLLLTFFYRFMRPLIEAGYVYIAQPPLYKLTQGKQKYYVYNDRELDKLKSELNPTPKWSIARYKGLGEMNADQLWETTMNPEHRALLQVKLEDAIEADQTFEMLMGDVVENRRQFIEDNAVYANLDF
T1 sequence (P20831 whole entry): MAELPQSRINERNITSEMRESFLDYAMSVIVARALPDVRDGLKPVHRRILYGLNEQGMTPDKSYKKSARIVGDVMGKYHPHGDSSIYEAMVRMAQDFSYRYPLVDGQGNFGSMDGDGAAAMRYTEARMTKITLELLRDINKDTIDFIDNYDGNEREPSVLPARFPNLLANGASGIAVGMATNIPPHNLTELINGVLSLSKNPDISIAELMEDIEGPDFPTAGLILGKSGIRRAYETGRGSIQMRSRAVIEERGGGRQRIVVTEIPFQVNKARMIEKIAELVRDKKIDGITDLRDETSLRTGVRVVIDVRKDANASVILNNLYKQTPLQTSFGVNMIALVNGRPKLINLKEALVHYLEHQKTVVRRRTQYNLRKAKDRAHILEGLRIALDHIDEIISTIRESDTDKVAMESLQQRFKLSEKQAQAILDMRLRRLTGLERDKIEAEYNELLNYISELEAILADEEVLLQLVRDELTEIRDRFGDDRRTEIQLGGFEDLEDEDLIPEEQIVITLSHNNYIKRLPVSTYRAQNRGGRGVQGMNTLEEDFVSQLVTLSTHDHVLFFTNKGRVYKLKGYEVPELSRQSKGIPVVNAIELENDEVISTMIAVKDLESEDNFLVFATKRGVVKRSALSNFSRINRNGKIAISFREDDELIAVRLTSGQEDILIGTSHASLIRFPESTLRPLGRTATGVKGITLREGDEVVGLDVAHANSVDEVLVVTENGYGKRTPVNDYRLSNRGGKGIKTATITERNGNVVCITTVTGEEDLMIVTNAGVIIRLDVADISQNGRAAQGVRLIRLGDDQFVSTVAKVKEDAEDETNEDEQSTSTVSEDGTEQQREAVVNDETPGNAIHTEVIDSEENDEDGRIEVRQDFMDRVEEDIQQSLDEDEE

With `O=C1c2ccccc2C(=O)c2sc(N3CCNCC3)nc21` [PNT, 2-(piperazin-1-yl)naphtho[2,3-d]thiazole-4,9-dione] the IC50 was 372 µM.
